Our source for the AC50 values is patent US20250171438A1 (Agios Pharmaceuticals, Inc., priority 2022, published 2025).

The assay deals with T1, human PAH with the R408W mutation (Homo sapiens, UniProt P00439, R408W).
T1 construct: expressed in transfected cells
T1 sequence (P00439 1-452 R408W): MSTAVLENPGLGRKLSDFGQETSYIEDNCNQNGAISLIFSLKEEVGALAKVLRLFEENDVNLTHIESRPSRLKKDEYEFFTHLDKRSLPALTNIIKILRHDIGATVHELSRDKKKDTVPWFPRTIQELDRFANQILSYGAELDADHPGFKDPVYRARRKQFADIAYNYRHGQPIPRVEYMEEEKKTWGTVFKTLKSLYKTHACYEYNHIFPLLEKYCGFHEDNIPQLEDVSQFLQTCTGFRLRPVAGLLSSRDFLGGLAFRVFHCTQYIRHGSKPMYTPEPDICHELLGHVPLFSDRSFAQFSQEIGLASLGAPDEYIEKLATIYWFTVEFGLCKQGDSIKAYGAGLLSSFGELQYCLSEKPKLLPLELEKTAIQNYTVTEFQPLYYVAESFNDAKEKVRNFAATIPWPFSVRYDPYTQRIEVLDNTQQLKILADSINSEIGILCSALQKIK
The assay is described as follows: Cell Based Phenylalanine Flux Assay. To be noted: A375 cells expressing human R408W PAH; 24 hrs compound incubation; 13C-Tyrosine by LC-MS; average where tested multiple times; read-out: AC50.

Each structure is given as a SMILES string. Some results are limits rather than exact numbers.

Usually AC50 stands for the concentration giving half of the maximal activity seen. Turning to `Cn1cc(-c2ncc(C(=O)N3CCc4[nH]cnc4[C@@H]3c3nc4ccccc4s3)s2)cn1` [Example 1230, (R)-(4-(benzo[d]thiazol-2-yl)-6,7-dihydro-1H-imidazo[4,5-c]pyridin-5(4H)-yl)(2-(1-methyl-1H-pyrazol-4-yl)thiazol-5-yl)methanone], the AC50 was 1 to 5 µM.
As for `C=Cc1ccc2c(C(=O)N3CCc4[nH]cnc4[C@H]3c3nc4ccccc4s3)cnn2c1` [Example 1231], the AC50 is 0.5 to 1 µM.
Regarding `C=Cc1ccc2c(C(=O)N3CCc4[nH]cnc4[C@@H]3c3nc4ccccc4s3)cnn2c1` [Example 1232, (R)-(4-(benzo[d]thiazol-2-yl)-6,7-dihydro-1H-imidazo[4,5-c]pyridin-5(4H)-yl)(6-vinylpyrazolo[1,5-a]pyridin-3-yl)methanone], the AC50 fell in the range of 1 to 5 µM.
On to `O=C(c1cncs1)N1CCc2[nH]cnc2[C@H]1c1nc2cccc(F)c2s1` [Example 1233, (S)-(4-(7-fluorobenzo[d]thiazol-2-yl)-6,7-dihydro-1H-imidazo[4,5-c]pyridin-5(4H)-yl)(thiazol-5-yl)methanone], for which the AC50 was 0.5 to 1 µM.
In the case of `O=C(c1cncs1)N1CCc2[nH]cnc2[C@@H]1c1nc2cccc(F)c2s1` [Example 1234, (R)-(4-(7-fluorobenzo[d]thiazol-2-yl)-6,7-dihydro-1H-imidazo[4,5-c]pyridin-5(4H)-yl)(thiazol-5-yl)methanone] it was 1 to 5 µM; in that of `O=C(c1cnn2cc(Br)ccc12)N1CCc2[nH]cnc2[C@H]1c1nc2c(F)cccc2s1` [Example 1235], 0.5 to 1 µM.
Next, `O=C(c1cnn2cc(Br)ccc12)N1CCc2[nH]cnc2[C@@H]1c1nc2c(F)cccc2s1` [Example 1236, (R)-(6-bromopyrazolo[1,5-a]pyridin-3-yl)(4-(4-fluorobenzo[d]thiazol-2-yl)-6,7-dihydro-1H-imidazo[4,5-c]pyridin-5(4H)-yl)methanone]: 1 to 5 µM; `O=C(c1cnn2cc(Cl)ccc12)N1CCc2[nH]cnc2[C@H]1c1nc2c(F)cccc2s1` [Example 1237]: 0.5 to 1 µM.
Next, `O=C(c1cnn2cc(Cl)ccc12)N1CCc2[nH]cnc2[C@@H]1c1nc2c(F)cccc2s1` [Example 1238, (R)-(6-chloropyrazolo[1,5-a]pyridin-3-yl)(4-(4-fluorobenzo[d]thiazol-2-yl)-6,7-dihydro-1H-imidazo[4,5-c]pyridin-5(4H)-yl)methanone]: 1 to 5 µM; `O=C(c1cnn2c(Br)cccc12)N1CCc2[nH]cnc2[C@H]1c1nc2c(F)cccc2s1` [Example 1239]: under 0.5 µM.
As to `O=C(c1cnn2c(Br)cccc12)N1CCc2[nH]cnc2[C@@H]1c1nc2c(F)cccc2s1` [Example 1240, (R)-(7-bromopyrazolo[1,5-a]pyridin-3-yl)(4-(4-fluorobenzo[d]thiazol-2-yl)-6,7-dihydro-1H-imidazo[4,5-c]pyridin-5(4H)-yl)methanone], the AC50 fell in the range of 1 to 5 µM.
Take `O=C(c1cnn2ccccc12)N1CCc2[nH]cnc2[C@H]1c1nc2c(Br)cccc2s1` [Example 1241, (S)-(4-(4-bromobenzo[d]thiazol-2-yl)-6,7-dihydro-1H-imidazo[4,5-c]pyridine-5(4H)-yl)(pyrazolo [1,5-a]pyridin-3-yl)methanone]: the AC50 lay within 0.5 to 1 µM.
In the case of `O=C(c1cnn2ccccc12)N1CCc2[nH]cnc2[C@@H]1c1nc2c(Br)cccc2s1` [Example 1242, (R)-(4-(4-bromobenzo[d]thiazol-2-yl)-6,7-dihydro-1H-imidazo[4,5-c]pyridine-5(4H)-yl)(pyrazolo [1,5-a]pyridin-3-yl) methanone] it was over 5 µM; in that of `CCc1ccc2c(C(=O)N3CCc4[nH]cnc4[C@H]3c3nc4ccccc4s3)cnn2c1` [Example 1243], 1 to 5 µM; in that of `CCc1ccc2c(C(=O)N3CCc4[nH]cnc4[C@@H]3c3nc4ccccc4s3)cnn2c1` [Example 1244, (R)-(4-(benzo[d]thiazol-2-yl)-6,7-dihydro-1H-imidazo[4,5-c]pyridin-5(4H)-yl)(6-ethylpyrazolo[1,5-a]pyridin-3-yl)methanone], over 5 µM.
Next, `O=C(CC1CC(F)C1)N1CCc2[nH]cnc2[C@H]1c1nc2ccccc2s1` (stereo partly drawn) [Example 1245]: under 0.5 µM; `O=C(CC1CC(F)C1)N1CCc2[nH]cnc2[C@@H]1c1nc2ccccc2s1` (stereo partly drawn) [Example 1246, (R)-1-(4-(benzo[d]thiazol-2-yl)-6,7-dihydro-1H-imidazo[4,5-c]pyridin-5(4H)-yl)-2-(3-fluorocyclobutyl)ethanone]: 1 to 5 µM; `O=C(c1cnco1)N1CCc2[nH]cnc2[C@H]1c1nc2cccc(F)c2s1` [Example 1247, (S)-(4-(7-fluorobenzo[d]thiazol-2-yl)-6,7-dihydro-1H-imidazo[4,5-c]pyridin-5(4H)-yl)(oxazol-5-yl)methanone]: 1 to 5 µM.
In the case of `O=C(c1cnco1)N1CCc2[nH]cnc2[C@@H]1c1nc2cccc(F)c2s1` [Example 1248, (R)-(4-(7-fluorobenzo[d]thiazol-2-yl)-6,7-dihydro-1H-imidazo[4,5-c]pyridin-5(4H)-yl)(oxazol-5-yl)methanone] it was 1 to 5 µM; in that of `N#Cc1ccn2ncc(C(=O)N3CCc4[nH]cnc4[C@H]3c3nc4c(F)cccc4s3)c2c1` [Example 1249, (S)-3-(4-(4-fluorobenzo[d]thiazol-2-yl)-4,5,6,7-tetrahydro-1H-imidazo[4,5-c]pyridine-5-carbonyl)pyrazolo[1,5-a]pyridine-5-carbonitrile], 0.5 to 1 µM; in that of `N#Cc1ccn2ncc(C(=O)N3CCc4[nH]cnc4[C@@H]3c3nc4c(F)cccc4s3)c2c1` [Example 1250, (R)-3-(4-(4-fluorobenzo[d]thiazol-2-yl)-4,5,6,7-tetrahydro-1H-imidazo[4,5-c]pyridine-5-carbonyl)pyrazolo[1,5-a]pyridine-5-carbonitrile], 1 to 5 µM.
In the case of `Cc1nnc(C(=O)N2CCc3[nH]cnc3[C@@H]2c2nc3c(F)cccc3s2)s1` [Example 1251, (R)-(4-(4-fluorobenzo[d]thiazol-2-yl)-6,7-dihydro-1H-imidazo[4,5-c]pyridin-5(4H)-yl)(5-methyl-1,3,4-thiadiazol-2-yl)methanone], the AC50 is over 5 µM.
Regarding `Cc1nnc(C(=O)N2CCc3[nH]cnc3[C@H]2c2nc3c(F)cccc3s2)s1` [Example 1252, (S)-(4-(4-fluorobenzo[d]thiazol-2-yl)-6,7-dihydro-1H-imidazo[4,5-c]pyridin-5(4H)-yl)(5-methyl-1,3,4-thiadiazol-2-yl)methanone], the AC50 was in the range of 1 to 5 µM.
In the case of `O=C(N1CCc2[nH]cnc2[C@H]1c1nc2ccccc2s1)C(F)(F)C1CC1` [Example 1253] it was 0.5 to 1 µM; in that of `O=C(N1CCc2[nH]cnc2[C@@H]1c1nc2ccccc2s1)C(F)(F)C1CC1` [Example 1254, (R)-1-(4-(benzo[d]thiazol-2-yl)-6,7-dihydro-1H-imidazo[4,5-c]pyridin-5(4H)-yl)-2-cyclopropyl-2,2-difluoroethanone], over 5 µM; in that of `O=C(N1CCc2[nH]cnc2[C@H]1c1nc2ccccc2s1)C1(CF)CC1` [Example 1255], 0.5 to 1 µM.
Next, `O=C(N1CCc2[nH]cnc2[C@@H]1c1nc2ccccc2s1)C1(CF)CC1` [Example 1256, (R)-(4-(benzo[d]thiazol-2-yl)-6,7-dihydro-1H-imidazo[4,5-c]pyridin-5(4H)-yl)(1-(fluoromethyl)cyclopropyl)methanone]: over 5 µM.
